According to publication PMC4498792, “Characterization of Novel Src Family Kinase Inhibitors to Attenuate Microgliosis” (PLoS ONE, 2015):
Like-named read-outs stand apart in the source and are kept apart here.

Tests used:
[1] = Microsomal stability / intrinsic clearance assay, mouse; assay type: in vitro ADME; conditions: liver microsomes
Protocol: (§1) Briefly, the compound was incubated with human or mouse microsomes in the presence or absence of NADPH. […] Data were converted to percent remaining by dividing by the time zero concentration value. In vitro half-life was determined based on the slope of the (first-order) decay curve and this value was converted to intrinsic clearance (CLint). […] Briefly, Caco-2 cells were plated in Millipore 96-well transwell plates and allowed to differentiate for 21 days to form polarized, epithelial monolayers. For apical to basolateral (A→B) permeability, the compound was added to the apical (A) side and amount permeation determined on the basolateral (B) side. For B→A permeability, the compound was added on the basolateral (B) side. Upon completion of the incubation (2 hr), the receiver side buffer was removed for analysis by LC-MS/MS. From the samples, apparent permeability rate coefficients (Papp values) and efflux ratios were determined for the compound.

Src [2] = target: T1, Src (Mus musculus, UniProt P05480); assay: Aβ-stimulated pSrc western blot in BV2 cells; assay type: cell-based, murine; conditions: 1h pretreatment, 1 μM Aβ 1-42 for 5 minutes
T1 construct: endogenous in cells; host or cells: BV2 murine microglial cell line
Protocol: (§2) BV2 cells were harvested and counted before stimulation. The cells were untreated (control), vehicle-treated (DMSO), or treated with increasing concentrations (0.5nM, 5nM, 50nM, 0.5 μM, 5μM and 50 μM) of […]-0125694 or LDDN-0127164 for 24h to assess toxicity and 1 hour to assess effects on basal kinase activity. […] Media were collected for ELISA analysis and for LDH release viability assays. For signaling analyses, cells were pretreated with drugs for 1 hour prior to 5 minute stimulation with 1μM Aβ 1-42. […] Protein concentrations were determined using the Bradford method. Cell lysates were resolved by SDS-PAGE on 10% polyacrylamide gels and transferred to PVDF membranes. Western blots were blocked with 3% bovine serum albumin and incubated in anti-phospho-[…][…]), anti-pSrc ([…]), anti-pERK, anti-pLyn ([…]), anti-pJNK, and anti-phospho-p38 primary antibodies with anti-α-tubulin, Src, ERK2, Lyn, JNK, and p38 antibodies used as the respective loading controls. Blots were washed followed by incubation with HRP-conjugated secondary antibodies and antibody binding was detected via enhanced chemiluminescence (GE Healthcare, Piscataway, NJ). Western blots were quantified using Adobe Photoshop software. Optical densities of bands were normalized using their appropriate loading controls and averaged (±) SD.

Lyn [3] = target: T2, Lyn (Mus musculus, UniProt P25911); assay: Basal pLyn (Tyr 396) western blot in BV2 cells; assay type: cell-based, murine; conditions: 0.5nM to 50 μM, 1h
T2 construct: endogenous in cells; host or cells: BV2 murine microglial cell line
Protocol: (§3) BV2 cells were harvested and counted before stimulation. The cells were untreated (control), vehicle-treated (DMSO), or treated with increasing concentrations (0.5nM, 5nM, 50nM, 0.5 μM, 5μM and 50 μM) of LDDN-0003499, LDDN-0075935, LDDN-0125694 or LDDN-0127164 for 24h to assess toxicity and 1 hour to assess effects on basal kinase activity. For secretion analyses, cells were pretreated with drugs for 1 hour prior to stimulation with 50nM Aβ (overnight) or 25ng/mL LPS (overnight) in the presence of the drugs in serum free DMEM/F12. Media were collected for ELISA analysis and for LDH release viability assays. For signaling analyses, cells were pretreated with drugs for 1 hour prior to 5 minute stimulation with 1μM Aβ 1–42. […] Protein concentrations were determined using the Bradford method.
(§4) Cell lysates were resolved by SDS-PAGE on 10% polyacrylamide gels and transferred to PVDF membranes. […] Blots were washed followed by incubation with HRP-conjugated secondary antibodies and antibody binding was detected via enhanced chemiluminescence (GE Healthcare, Piscataway, NJ). Western blots were quantified using Adobe Photoshop software. […]

ERK [4] = assay: Aβ-stimulated pERK western blot in BV2 cells; assay type: cell-based, murine; conditions: 1h pretreatment, 1 μM Aβ
Protocol: as §2

ERK [5] = assay: Basal pERK western blot in BV2 cells; assay type: cell-based, murine; conditions: 0.5nM to 50 μM, 1h
Protocol: as §3, §4

p38 = assay: Basal p-p38 western blot in BV2 cells; assay type: cell-based, murine; conditions: 0.5nM to 50 μM, 1h
Protocol: as §3, §4

Lyn [6] = target: T2, Lyn; assay: Aβ-stimulated pLyn western blot in BV2 cells; assay type: cell-based, murine
Protocol: as §2

TNF-α secretion [7] = assay: LPS-stimulated TNF-α secretion ELISA in BV2 cells; assay type: cell-based, murine; conditions: 1h pretreatment, 25ng/ml LPS, 24h
Protocol: as §3
(§5) Media were collected from BV2 cells following 24 hour stimulations for ELISA analyses. Levels of mouse TNF-α, IL-6, and IL-1β in the media were determined using commercially available ELISA kits according to the manufacturer’s protocol (R&D Systems).

TNF-α secretion [8] = assay: Aβ-stimulated TNF-α secretion ELISA in BV2 cells; assay type: cell-based, murine; conditions: 1h pretreatment, 50nM Aβ 1-42, 24h
Protocol: as §3, §5

IL-6 secretion = assay: Aβ-stimulated IL-6 secretion ELISA in BV2 cells; assay type: cell-based, murine; conditions: 1h pretreatment, 50nM Aβ 1-42, 24h
Protocol: as §3, §5

Caco-2 cells = assay: Caco-2 bidirectional permeability assay; assay type: in vitro ADME; conditions: Caco-2, 10 μM, 2 hr
Protocol: as §1

[9] = Caco-2 bidirectional permeability assay; assay type: in vitro ADME; conditions: human
Protocol: as §1

[10] = system: total protein phosphotyrosine levels in BV2 cells; assay: Total protein phosphotyrosine western blot (4G10), basal; assay type: cell-based, murine; conditions: 0.5nM to 50 μM, 1h, vs vehicle
Protocol: as §3, §4

JNK = assay: Basal pJNK western blot in BV2 cells; assay type: cell-based, murine; conditions: 0.5nM to 50 μM, 1h
Protocol: as §3, §4

microglial BV2 cells = assay: LDH release cell viability assay; assay type: cell-based, murine; conditions: 0.5nM to 50 μM, 24h
Protocol: as §3
For the lactate dehydrogenase release (LDH) assay, media following the 24 hour cell stimulations were transferred onto a new 96-well plate and LDH concentrations assayed according to manufacturer instructions (Promega Corporation, Madison, WI). Background absorbance was subtracted from each condition. All absorbance values for the LDH assay were averaged and plotted ±SD.

[11] = Microsomal stability / intrinsic clearance assay, human; assay type: in vitro ADME; conditions: liver microsomes
Protocol: as §1

Src [12] = target: T1, Src; assay: Basal pSrc (Tyr 416) western blot in BV2 cells; assay type: cell-based, murine; conditions: 0.5nM to 50 μM, 1h
Protocol: as §3, §4

[13] = read-out: NADPH-Dependent CLint

T2 sequence (P25911 whole entry): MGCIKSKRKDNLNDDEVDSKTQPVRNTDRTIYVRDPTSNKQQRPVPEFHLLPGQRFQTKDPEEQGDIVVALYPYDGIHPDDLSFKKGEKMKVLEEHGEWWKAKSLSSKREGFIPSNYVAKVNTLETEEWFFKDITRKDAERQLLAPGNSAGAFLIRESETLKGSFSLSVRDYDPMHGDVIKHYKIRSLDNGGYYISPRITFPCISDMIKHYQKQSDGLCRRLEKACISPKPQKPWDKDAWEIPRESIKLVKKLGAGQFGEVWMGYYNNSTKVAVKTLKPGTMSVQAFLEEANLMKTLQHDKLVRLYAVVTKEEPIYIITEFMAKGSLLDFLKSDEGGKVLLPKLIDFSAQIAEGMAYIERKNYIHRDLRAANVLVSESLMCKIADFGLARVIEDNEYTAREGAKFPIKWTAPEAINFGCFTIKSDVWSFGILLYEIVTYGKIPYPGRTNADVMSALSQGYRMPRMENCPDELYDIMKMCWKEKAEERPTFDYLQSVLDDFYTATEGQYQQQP
T1 sequence (P05480 whole entry): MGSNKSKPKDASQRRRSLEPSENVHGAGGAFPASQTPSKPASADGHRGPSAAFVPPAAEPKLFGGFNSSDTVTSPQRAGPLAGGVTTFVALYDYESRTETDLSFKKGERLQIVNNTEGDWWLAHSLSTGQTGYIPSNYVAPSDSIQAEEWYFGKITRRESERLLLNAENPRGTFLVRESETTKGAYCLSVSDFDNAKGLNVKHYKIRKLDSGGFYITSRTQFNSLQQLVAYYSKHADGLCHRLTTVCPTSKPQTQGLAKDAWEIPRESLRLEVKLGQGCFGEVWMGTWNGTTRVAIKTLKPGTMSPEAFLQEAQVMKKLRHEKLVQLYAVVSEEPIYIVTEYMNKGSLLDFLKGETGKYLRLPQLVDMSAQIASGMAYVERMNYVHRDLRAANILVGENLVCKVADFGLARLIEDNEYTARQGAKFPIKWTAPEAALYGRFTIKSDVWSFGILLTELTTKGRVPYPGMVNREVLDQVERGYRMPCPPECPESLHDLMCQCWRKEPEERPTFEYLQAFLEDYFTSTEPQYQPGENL

COc1cc2ncnc(Nc3ccc(Cl)cc3Cl)c2cc1OC [LDDN-0003499]
half-life at 1 μM ([1]; read-out: NADPH-Depend. T1/2): 16.6 min | microsomal CLint at 1 μM [1, 13]: 83.3 µL/min/mg | microsomal CLint at 1 μM ([1]; read-out: NADPH-Free CLint): 15.8 µL/min/mg | half-life at 1 μM ([1]; read-out: NADPH-Free T1/2): 88 min | concentration required to attenuate the Aβ stimulated increase in pSrc (Src [2]): 500 nM | active, phosphorylated Lyn (pLyn) protein levels (Lyn [3]): dose-dependent decrease | pERK levels following Aβ stimulation (ERK [4]): no inhibition | phosphorylated ERK (pERK) protein levels (ERK [5]): no ability to alter | phosphorylated p38 (p-p38) protein levels (p38): no ability to alter | selectivity for Lyn versus Src in the Aβ stimulation paradigm (Lyn [6]; 50nM (pLyn) vs 500nM (pSrc)): tenfold | concentration sufficient to significantly attenuate the Aβ stimulated increase in pLyn levels (Lyn [6]; 1h pretreatment, 1 μM Aβ 1-42 for 5 minutes): 50 nM | LPS stimulated TNF-α secretion (TNF-α secretion [7]): attenuated | Aβ stimulated TNF-α secretion (TNF-α secretion [8]): dose-dependently inhibited | concentration at which inhibition of Aβ stimulated TNF-α secretion begins (TNF-α secretion [8]): 500 nM | Aβ stimulated IL-6 secretion (IL-6 secretion): dose-dependently inhibited | Caco-2 permeability, comment (Caco-2 cells): high permeability | efflux ratio at 2 hr, 10 μM ([9]; Caco-2, 10 μM, 2 hr, read-out: Efflux Ratio Papp(B→A) / Papp(A→B)): 0.85 | Papp A→B at 2 hr, 10 μM ([9]; Caco-2, 10 μM, 2 hr, read-out: mean A→B Papp): 19 ×10⁻⁶ cm/s | Papp B→A at 2 hr, 10 μM ([9]; Caco-2, 10 μM, 2 hr, read-out: mean B→A Papp): 16.2 ×10⁻⁶ cm/s | total protein phosphotyrosine levels [10]: significantly decrease the total protein phosphotyrosine levels in a dose-dependent manner | phosphorylated JNK (pJNK) protein levels (JNK): no ability to alter | toxicity to microglial BV2 cells (LDH release, cell viability) (microglial BV2 cells): not toxic | half-life at 1 μM ([11]; read-out: NADPH-Depend. T1/2): 14.1 min | microsomal CLint at 1 μM [11, 13]: 98.4 µL/min/mg | microsomal CLint at 1 μM ([11]; read-out: NADPH-Free CLint): 21.2 µL/min/mg | half-life at 1 μM ([11]; read-out: NADPH-Free T1/2): 65 min | active, phosphorylated Src (pSrc) protein levels (Src [12]): dose-dependent decrease

O=C(Nc1cc(Cl)ccc1Cl)c1noc2c1CCC2 [LDDN-0075935]
active, phosphorylated Lyn (pLyn) protein levels (Lyn [3]): not able to attenuate | phosphorylated ERK (pERK) protein levels (ERK [5]): stimulated increased pERK protein levels at the highest drug concentration | phosphorylated p38 (p-p38) protein levels (p38): did not attenuate | total protein phosphotyrosine levels [10]: no effect | phosphorylated JNK (pJNK) protein levels (JNK): did not attenuate | toxicity to microglial BV2 cells (LDH release, cell viability) (microglial BV2 cells): not toxic | active, phosphorylated Src (pSrc) protein levels (Src [12]): not able to attenuate

CC(=O)CC(c1ccccc1)c1c(O)c2ccccc2oc1=O (stereo not drawn) [warfarin, reference compound]
Papp A→B at 2 hr, 10 μM ([9]; Caco-2): 27.1 ×10⁻⁶ cm/s | Papp B→A at 2 hr, 10 μM ([9]; Caco-2): 10.4 ×10⁻⁶ cm/s
